In patent publication US20090010998A1 (priority 2007, published 2009):

Tests used:
BALB/c or A/J mice = settings: mouse, in vivo
backs of BALB/c mice = test: in vivo release test, FD&C dye impregnated dissolvable film on abraded skin; settings: one hour after application; visually noted, estimated
Experimental: In one test, the backs of BALB/c mice were treated in multiple sites with an abrasive device (FAST™ device, see, for example, United States Publication No. 20040236269, incorporated herein by reference) where a 60 μm abrasive, was applied to the skin with 10-20 grams of force, oscillating at 840 Hz for 2 seconds over a 5×8 mm spot. FD&C dye impregnated dissolvable films were placed over each treatment site with a semi-occlusive covering (patch). The patch was left on for a period of 1-24 hours.

Compound | effect of adjuvant/preservative on antibody titer (BALB/c or A/J mice) | effect of adjuvant/preservative on efficiency of TCI (BALB/c or A/J mice) | presence of dye on the mouse skin (backs of BALB/c mice)
C=O [formalin] | higher titer antibody response | did not show a statistically significant difference | –
FD&C No. 1 dye | – | – | > 75%
alum | higher titer antibody response | – | –
